Test results: US20230312587A1, “PTERIDINONE COMPOUNDS AND USES THEREOF” (Vertex Pharmaceutical Incorporated, priority 2018, published 2023)
Read-outs that look alike come from different tables or passages of the source.

Tests used:
Format in all cases: cell-based
[1] = tested on: β-catenin-TCF-mediated reporter transcription activity in Colo 205 cells; experiment: Colo 205 reporter assay (TCF/LEF luciferase); conditions: five hours after addition of compound
How it was run: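 Luciferase signal from a TCF/LEF-driven reporter, stably integrated in Colo 205 colon cancer cells, was measured 5 h after compound addition.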

Colo-205 cells = experiment: Calcium flux assay (FLIPR Calcium 5); conditions: FLIPR Calcium 5, measured over 36 minutes
Description: Compounds described herein induced ER stress by causing intracellular calcium flux. Calcium flux was measured in Colo-205 cells using the FLTPR® Calcium 5 Assay Kit according to manufacter's protocol (Molecular Devices, Cat. #R8186) on a FLIPR3 system (Molecular Devices). Calcium flux is measured over 36 minutes. The Colo-205 calcium flux assay data are summarized in Table 47: A<0.6 μM; 0.6 μM≤B<2.0 μM; 2.0 μM≤C<10.0 μM; D≥10.0 μM.

Hek293 empty vector = experiment: In vitro cell viability (CellTiter-Glo), Hek293 empty vector
Description: HEK293 (ATCC, catalog #CRL-1573) cells are plated in 10 cm dishes (Corning, product #430167) into 10 mL of complete DMEM cell culture media [DMEM (Life Technologies, product #11960-051) media supplemented with 10% FBS (Hyclone, catalog #SH30071.03), antimycotic/antibiotic (Life Technologies, product #15240-062), and Glutamax (Life Technologies, product #35050-061)] at 3×10^6 cells per dish. Cells are allowed to attach and grow overnight at 37° C. in humidified 5% CO2. Cells are co-transfected with pVSV-G, pCMV-Gag/Pol and pCLPCX_WFS1 using Fugene 6 (Promega, catalog #E2691) according to manufacturer's protocol. Separately, cells are co-transfected with pVSV-G, pCMV-Gag/Pol and pCLPCX to produce control retrovirus. Cell culture media containing retrovirus (viral supernatant) is collected at 48 and 72 hours following transfection, filtered through a 0.4 uM filter, and stored at −80° C.
HEK293 cells are plated in 6 well plates (Corning, product #3516) in 2 mL of complete DMEM cell culture media at 1×10^5 cells well and allowed to attach and grow overnight at 37° C. in humidified 5% CO2. The following day, the media is replaced with viral supernatant to which 10 ug/ml of Polybrene® (Santa Cruz Biotech, catalog #sc-134220) is added. Viral supernatant is replaced 24 hours later with complete DMEM media. Transduced cells are selected in complete DMEM cell culture media containing 1 microgram/mL of puromycin (Life Technologies, catalog #A1113803).
HEK293 cells containing empty pCLPCx vector (HEK293 empty), HEK293 cells stably over-expression WFS1 (HEK293 WFS1), HepG2, and HepG2 cells where WFS1 was depleted via CRISPR/Cas9 (HepG2 WFS1 KO) cells were plated into 96-well black plates (Corning, product #3904) in 100 microliters of complete DMEM cell culture media [DMEM (Life Technologies, product #11960-051) media supplemented with 10% FBS (Hyclone, catalog #SH30071.03), antimycotic/antibiotic (Life Technologies, product #15240-062), and Glutamax (Life Technologies, product #35050-061)] at 1,000 (HEK293) or 5,000 (HepG2) cells per well. Cells were allowed to attach and grow overnight, after which compounds are added at various concentrations. Cell viability was assessed 96 hrs after compound addition with CellTiter-Glo reagent (Promega, catalog #G7570) according to manufacturer's protocol and measurement on a Pherastar luminescence plate reader (BMG Labtech).
The IC50s for the viability of both the Hek293 empty vector and WFS1 over-expressing cells are summarized in Table 47: A<0.06 μM; 0.06 μM≤B<0.6 μM; 0.6 μM≤C<3.0 μM; D≥3.0 μM.

[2] = Colo 205 TCF/LEF luciferase reporter, read-out: TCF reporter Colo205 IC50
[3] = Hek293 empty vector, read-out: Hek293 empty vector viability
[4] = Homo sapiens, COLO 205, 5 h, Colo 205 TCF/LEF luciferase reporter, read-out: TCF reporter Colo205 IC50
[5] = Homo sapiens, HEK293, read-out: Hek293 empty vector viability
[6] = Homo sapiens, COLO 205, 5 h, Colo 205 cells with stably transfected TCF/LEF luciferase reporter, read-out: TCF reporter Colo205

| Compound | IC50 [1, 4] [nM] | EC50 (Colo-205 cells; Homo sapiens, COLO 205, 0.6 h) [nM] | IC50 (Hek293 empty vector; [5]) [nM] | further results |
| --- | --- | --- | --- | --- |
| Cc1nc(N[C@H]2CC[C@H](Oc3ccc(C(F)(F)F)nc3)C2)nc2c1NC(=O)[C@H](C)N2C (single isomer, unassigned) [Compound 377] |  |  |  | IC50 [1, 2]: < 300 nM; EC50 (Colo-205 cells): < 600 nM; IC50 (Hek293 empty vector; [3]): ≥ 3000 nM |
| Cc1nc(NCc2cnn(Cc3ccc(F)nc3)c2)nc2c1NC(=O)[C@H](C1CC1)N2C [Compound 421, (7S)-7-cyclopropyl-2-(((1-((6-fluoropyridin-3-yl)methyl)-1H-pyrazol-4-yl)methyl)amino)-4,8-dimethyl-7,8-dihydropteridin-6(511)-one] |  |  |  | IC50 [1, 2]: < 300 nM; EC50 (Colo-205 cells): 600 to 2000 nM; IC50 (Hek293 empty vector; [3]): ≥ 3000 nM |
| Cc1nc(NCc2cn(Cc3ccc(C(F)(F)F)nc3)nc2Br)nc2c1NC(=O)[C@H](C)N2C [Compound 412, (S)-2-(((3-bromo-1-((6-(trifluoromethyl)pyridin-3-yl)methyl)-1H-pyrazol-4-yl)methyl)amino)-4,7,8-trimethyl-7,8-dihydropteridin-6(5H)-one] | < 300 | 600 to 2000 | ≥ 3000 |  |
| CC(=O)N(Cc1cnn(Cc2ccc(C(F)(F)F)nc2)c1)c1nc(C)c2c(n1)N(C)[C@@H](C)C(=O)N2 [Compound 405, (7S)-N-((1-((6-(trifluoromethyl)pyridin-3-yl)methyl)-1H-pyrazol-4-yl)methyl)-N-(4,7,8-trimethyl-6-oxo-5,6,7,8-tetrahydropteridin-2-yl)acetamide] |  | ≥ 10000 | ≥ 3000 | IC50 [1, 6]: ≥ 5000 nM |
| Cc1nc(NCc2cnn(Cc3ccc(C(F)(F)F)nc3)c2)nc2c1NC(=O)[C@H](C)N2C [Compound 136, (7S)-4,7,8-trimethyl-2-(((1-((6-(trifluoromethyl)pyridin-3-yl)methyl)-111-pyrazol-4-yl)methyl)amino)-7,8-dihydropteridin-6(5H)-one] |  |  |  | IC50 [1, 2]: < 300 nM; EC50 (Colo-205 cells): 600 to 2000 nM; IC50 (Hek293 empty vector; [3]): ≥ 3000 nM; IC50 (Hek293 empty vector; cell viability, Hek293 empty vector, read-out: IC50): > 27000 nM; IC50 (Hek293 empty vector; cell viability, Hek293 empty vector, read-out: IC50 class): ≥ 3000 nM |
| CCOc1ccc(CCn2cc(CNc3ncc4c(n3)N(C)[C@@H](C)C(=O)N4)cn2)cc1 [Compound 121, (7S)-2-(((1-(4-ethoxyphenethyl)-1H-pyrazol-4-yl)methyl)amino)-7,8-dimethyl-7,8-dihydropteridin-6(5H)-one] | 1000 to 5000 | 600 to 2000 | ≥ 3000 |  |
| Cc1nc(NCc2cnn(Cc3cc(C(F)(F)F)nn3C)c2)nc2c1NC(=O)[C@H](C)N2C [Compound 160, (7S)-4,7,8-trimethyl-2-(((1-((1-methyl-3-(trifluoromethyl)-1H-pyrazol-5-yl)methyl)-1H-pyrazol-4-yl)methyl)amino)-7,8-dihydropteridin-6(5H)-one] | < 300 | 600 to 2000 | ≥ 3000 |  |
| Cc1ncc(Cn2cc(CNc3nc(C)c4c(n3)N(C)[C@@H](C(C)C)C(=O)N4)cn2)cc1F [Compound 425, (7S)-2-(((1-((5-fluoro-6-methylpyridin-3-yl)methyl)-1H-pyrazol-4-yl)methyl)amino)-7-isopropyl-4,8-dimethyl-7,8-dihydropteridin-6(5H)-one] | < 300 | 600 to 2000 | ≥ 3000 |  |
| Cc1nc(NCc2cnn([C@H]3CCN(C4CCC(F)(F)CC4)C3)c2)nc2c1NC(=O)[C@H](C)N2C [Compound 142, (7S)-2-(((1-((S)-1-(4,4-difluorocyclohexyl)pyrrolidin-3-yl)-1H-pyrazol-4-yl)methyl)amino)-4,7,8-trimethyl-7,8-dihydropteridin-6(5H)-one] | 300 to 1000 | 600 to 2000 | ≥ 3000 |  |
| Cc1nc(NCc2cnn(CCC3CCOCC3)c2)nc2c1NC(=O)[C@H](C)N2C [Compound 115, (7S)-4,7,8-trimethyl-2-(((1-(2-(tetrahydro-2H-pyran-4-yl)ethyl)-1H-pyrazol-4-yl)methyl)amino)-7,8-dihydropteridin-6(5H)-one] | 1000 to 5000 | 2000 to 10000 | ≥ 3000 |  |
| Cc1nc(N[C@H]2C[C@H](Sc3ccc(F)cc3)C2)nc2c1N(C)C(=O)[C@H](C)N2C [Compound 307, (7S)-2-((trans-3-((4-fluorophenyl)thio)cyclobutyl)amino)-4,5,7,8-tetramethyl-7,8-dihydropteridin-6(5H)-one] | 1000 to 5000 | 600 to 2000 | ≥ 3000 |  |
| CCN1c2nc(NCc3cnn(Cc4ccc(C(F)(F)F)nc4)c3)nc(C)c2NC(=O)[C@@H]1C [Compound 395, (7S)-8-Ethyl-4,7-dimethyl-2-(((1-((6-(trifluoromethyl)pyridin-3-yl)methyl)-1H-pyrazol-4-yl)methyl)amino)-7,8-dihydropteridin-6(5H)-one] | < 300 | 600 to 2000 | ≥ 3000 |  |
| Cc1nc(NCc2ccc(-n3cc(C(F)(F)F)cn3)nc2)nc2c1NC(=O)[C@H](C)N2C [Compound 143, (S)-4,7,8-trimethyl-2-(((6-(4-(trifluoromethyl)-1H-pyrazol-1-yl)pyridin-3-yl)methyl)amino)-7,8-dihydropteridin-6(5H)-one] | 300 to 1000 | 2000 to 10000 | ≥ 3000 |  |
| Cc1nc(NCc2cnn(Cc3ccc(Cl)nc3)c2)nc2c1NC(=O)[C@H](C(C)C)N2C [Compound 409, (7S)-2-(((1-((6-chloropyridin-3-yl)methyl)-1H-pyrazol-4-yl)methyl)amino)-7-isopropyl-4,8-dimethyl-7,8-dihydropteridin-6(5H)-one] |  | 600 to 2000 | ≥ 3000 | IC50 [1, 6]: < 300 nM |
| Cc1nc(NCc2cnn(Cc3ccc(C(F)(F)F)nc3)c2)nc2c1NC(=O)[C@H](C)N2C(C)C [Compound 385, (7S)-8-isopropyl-4,7-dimethyl-2-(((1-((6-(trifluoromethyl)pyridin-3-yl)methyl)-1H-pyrazol-4-yl)methyl)amino)-7,8-dihydropteridin-6(5H)-one] | < 300 | 600 to 2000 | ≥ 3000 |  |
| Cc1nc(NCc2cnn(Cc3ccc(F)cc3)c2)nc2c1N(C)C(=O)[C@H](C)N2C [Compound 1, (7S)-2-(((1-(4-fluorobenzyl)-1H-pyrazol-4-yl)methyl)amino)-4,5,7,8-tetramethyl-7,8-dihydropteridin-6(5H)-one] | < 300 | < 600 | ≥ 3000 |  |
| Cc1nc(NCc2cnn(CCc3ccc(F)cc3)c2)nc2c1NC(=O)[C@H](C)N2C [Compound 6, (7S)-2-(((1-(4-fluorophenethyl)-1H-pyrazol-4-yl)methyl)amino)-4,7,8-trimethyl-7,8-dihydropteridin-6(5H)-one] | 300 to 1000 | 600 to 2000 | ≥ 3000 |  |
| (7S)-4,7,8-trimethyl-2-((trans-3-(3,4-difluorophenoxy)cyclobutyl)amino)-7,8-dihydropteridin-6(5H)-one [Compound 251] |  |  |  | IC50 [1, 2]: 300 to 1000 nM; EC50 (Colo-205 cells): 600 to 2000 nM; IC50 (Hek293 empty vector; [3]): ≥ 3000 nM |
| Cc1nc(N[C@H]2C[C@H](Oc3ccnc(C(F)(F)F)c3)C2)nc2c1NC(=O)[C@H](C)N2C [Compound 335, (7S)-4,7,8-trimethyl-2-((trans-3-((2-(trifluoromethyl)pyridin-4-yl)oxy)cyclobutyl)amino)-7,8-dihydropteridin-6(5H)-one] | < 300 | 600 to 2000 | ≥ 3000 |  |
